In brackets after ≈: the same amount, converted by molar mass.
How the values were obtained:
[1] = test system: S. epidermidis ATCC 35984; experiment: MIC and MBC tube-dilution assay; type: cell-based; conditions: Staphylococcus epidermidis; for MBC: ATCC35984, 99.9% reduction of inoculum; for MIC: ATCC35984, MHB, 16–20 h
Experimental: (§1) The MIC assays of the derivatives of compound 5 against S. epidermidis, S. aureus, MRSA and E. coli were performed by using the methods described previously by Wiegand et al. ([2008]). In brief, two-fold serial dilutions of the derivatives were prepared in tubes containing 4 mL MHB medium, yielding final concentrations from 200 to 0.78 μM. Bacterial cultures were grown overnight and adjusted so that the bacterial suspension turbidity was equivalent to a 0.5 McFarland standard (~1 × 10^8 CFU/mL) and further diluted to 1:200 into MHB medium. The contents in the tubes were mixed thoroughly and incubated at 37°C with shaking at 220 rpm for 16–20 h. The MIC endpoint was defined as the lowest concentration at which there was no visible growth in the tubes. The MBC values were assessed by plating 100 μL samples from each negative (no visible bacterial growth) culture tube from the MIC assays onto blank MHB agar plates. After incubation at 37°C for 24 h, the bacterial colonies on the plates were counted. The MBC was the concentration at which a 99.9% reduction of the original inoculum was observed (Pridmore et al., [2011]). In this assay, all the experiments were performed three times.

E. coli ATCC 25922 = experiment: MIC tube-dilution assay; type: cell-based, Escherichia coli; conditions: E. coli ATCC29522 (head), highest concentration used 200 μM
Experimental: as §1

S. aureus ATCC 49230 = experiment: MIC tube-dilution assay; type: cell-based; conditions: Staphylococcus aureus, ATCC49230
Experimental: as §1

[2] = test system: S. epidermidis ATCC 12228; experiment: MIC tube-dilution assay; type: cell-based; conditions: Staphylococcus epidermidis, ATCC12228
Experimental: as §1

Cytotoxicity MTT assay = type: cell-based; conditions: African green monkey, Vero cells, highest concentration tested 200 μM
Experimental: A Cell Proliferation Kit I (MTT; Roche, Indianapolis, USA) was used to detect the cytotoxicity of the derivatives against Vero cells. Vero cells were added to 96-well microtiter plates at a concentration of 5 × 10^4 cells/well in 100 μL of culture medium. After 24 h, culture medium was replaced by 100 μL serial dilutions of the derivatives (0.78–100 μM) and the cells were incubated for 4 h in an atmosphere of 5% CO2, then 10 μL of the MTT stock solution was added to each well and the plate returned to the 37°C incubator for 4 h. Subsequent to the incubation, the purple formazan salts were dissolved in DMSO, and the absorbance of each well was measured at wavelengths of 595 nm (test) and 655 nm (reference). Cells treated with the solvent (0.1% DMSO) were used as a blank control. The concentration of the derivatives that produced a 50% cytotoxicity effect on Vero cells (CC50) was calculated using Origin v8.0 software (Origin Lab, Northampton, USA).

[3] = Erythrocyte hemolysis assay; type: cell-based; conditions: human, erythrocytes (5% suspension), 37°C; for hemolysis at 1 h, 200 µM: at 200 μM; for hemolysis at 1 h: at MIC (against S epidermidis ATCC 35984)
Experimental: Hemolytic activities of the derivatives were measured on healthy human erythrocytes. A pure suspension of erythrocytes was obtained by washing a blood sample with sterile 0.9% NaCl saline solution. Erythrocytes were resuspended in normal saline to give a 5% solution, then treated with MIC, 4 × MIC or 200 μM of the derivatives for 1 h at 37°C in 96-well microtiter plates. After the incubation and centrifugation at 1,000 g for 10 min, supernatants were transferred to another sterile plate and the absorbance at 570 nm was measured on a spectrophotometric microplate reader. A positive control (100% hemolysis) and a negative control (0% hemolysis) were achieved by incubating with 1% Triton-X 100 and 0.1% DMSO, respectively. Each assay was performed in triplicate and repeated three times.

[4] = test system: S. epidermidis ATCC 35984 mature biofilms; experiment: Cell viability in mature (24 h) biofilms by CLSM with Live/Dead staining; type: cell-based, Staphylococcus epidermidis; conditions: 4 × MIC, 16 h, 24 h mature biofilm; for PI fluorescence quantity (dead cells) / SYTO9 fluorescence quantity (viable cells): Image J
Experimental: The effect of the derivatives on cell viability in mature biofilms (24 h old) was determined using the Live/Dead Bacterial Viability method (Live/Dead BacLight, Molecular Probes, USA). […] The mature biofilms were stained with SYTO 9 and propidium iodide at room temperature for 15 min, following gentle washing of the dishes with normal saline, and were observed under a Leica TCS SP5 CLSM with a 63 × 1.4-NA oil-immersion objective. Further, image analysis was performed using IMARIS 7.0.0 software (Bitplane). The fluorescence quantities of biofilm were determined using Image J software. This assay was performed in triplicate and similar results were obtained.

YycG′ protein = molecular target: T1, YycG′ protein (Staphylococcus epidermidis, UniProt Q5HK19); experiment: Inhibition of YycG′ autophosphorylation (Kinase-Glo Luminescent Kinase Assay); type: biochemical; conditions: 4 μM ATP; for inhibition of the enzymatic activity of YycG′ protein: 100 μM derivative, 2 μg YycG′ protein; for IC50: Kinase-Glo, 2 μg YycG′, read-out: IC50 (inhibition of autophosphorylation of recombinant YycG′)
T1 construct: made in house; host or cells: E. coli BL21(DE3)
T1 sequence (Q5HK19 384-602 limits assumed): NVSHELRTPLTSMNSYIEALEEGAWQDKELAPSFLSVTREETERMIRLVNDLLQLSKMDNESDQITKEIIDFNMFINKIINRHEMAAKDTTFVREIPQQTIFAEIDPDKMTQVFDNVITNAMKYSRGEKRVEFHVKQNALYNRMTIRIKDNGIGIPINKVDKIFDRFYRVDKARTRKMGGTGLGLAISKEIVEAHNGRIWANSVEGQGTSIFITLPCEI
Experimental: The construction of the recombinant plasmid pET28a-YycG′ (containing the HATPase_c and HisKA domains of YycG) has been previously described (Liu et al., [2014]). After being used to transform E. coli strain BL21(DE3), this recombinant plasmid was induced to express YycG′ protein by 0.4 mM isopropyl-1-thio-β-D-galactopyranoside at 21°C for 12 h. Then, the bacterial cells were disrupted by sonication and centrifuged, the supernatant was purified by Ni–NTA agarose (Qiagen, Los Angeles, CA, USA). The inhibitory activities of the compound 5 derivatives on the ATPase activity of the YycG′ protein were measured using the Kinase-Glo™ Luminescent Kinase Assay (Promega, Madison, WI, USA). Briefly, 2 μg purified YycG′ protein was pre-incubated with a series of dilutions of the derivatives in reaction buffer [40 mM Tris (pH 7.5), 20 mM MgCl2 and 0.1 mg/ml BSA] at room temperature for 30 min, 4 μM ATP was added and incubated for 30 min at room temperature, then Kinase-Glo™ Reagent was added to detect the remaining amount of ATP, as reflected by luminescence intensity (RLU). In parallel, YycG′ protein with no addition of the derivatives was used as the control and ATP only was used as a blank. The rate of inhibition of protein phosphorylation (Rp) by the derivatives was calculated by the following equation: Rp = RLU(YycG^′+derivative+ATP+Kinase−Glo™)−RLU(YycG^′+ATP+Kinase−Glo™)/RLU(ATP+Kinase−Glo™)−RLU(YycG^′+ATP+Kinase−Glo™) × 100 IC50 (the concentration resulting in 50% inhibition of YycG′ protein autophosphorylation) was obtained by using Origin v7.0 software (OriginLab, Northampton, USA).

[5] = test system: S. epidermidis ATCC 35984; experiment: Time-kill assay against fast-growing S. epidermidis; type: cell-based, Staphylococcus epidermidis; conditions: 4 × MIC
Experimental: Suspensions of S. epidermidis (1 × 10^7 CFU/mL) were prepared and separately treated with the derivatives of compound 5 or vancomycin at concentrations of 4 × MIC in fresh MHB. Time-kill experiments were performed at 37°C with shaking at 220 rpm under aerobic conditions. Aliquots (1 mL) were removed from the culture medium at different time points (0, 1, 3, 5, 8, and 24 h), serially diluted and 100 μL of each of the dilutions plated out onto tryptic soy agar. After incubating at 37°C for 24 h, emergent bacterial colonies were counted, and the activity of the derivatives against fast-growing S. epidermidis cells was determined by plotting log10 colony counts (CFU/mL) against time. Bactericidal activity was defined as a 3-log10 decrease in CFU/mL. This assay was performed in triplicate and similar results were obtained.

[6] = test system: S. epidermidis ATCC 35984 mature biofilms; parameters: method as in Liu et al., 2014; conditions: vancomycin 128 μg/mL; ref Liu et al., 2014; cited from earlier work
[7] = Escherichia coli, ATCC 25922 / ATCC 29522

## CCOC(=O)C1=C(c2ccccc2)N=c2s/c(=C\c3ccc(-c4cccc(C(=O)O)c4)o3)c(=O)n2C1c1ccc2c(c1)OCO2 (centres unmarked) [Compound 5, {5-benzo [1,3]dioxol-5-yl-2-[5-(3-carboxy-phenyl)-furan-2-ylmethylene]-3-oxo-7-phenyl-2,3-dihydro-5H-thiazolo [3,2-a]pyrimidine-6-carboxylic} acid ethyl ester]
[1]
  MBC: 25 µM (≈ 15.5 µg/mL)
  MIC: 6.25 µM (≈ 3.88 µg/mL)
E. coli ATCC 25922; [7]
  MIC: > 200 µM
S. aureus ATCC 49230
  MIC: 6.25 µM (≈ 3.88 µg/mL)
[2]
  MIC: 6.25 µM (≈ 3.88 µg/mL)
Cytotoxicity MTT assay
  CC50 at 4 h: > 200 µM
[3]
  hemolysis at 1 h, 200 µM: 0.51 ± 0.06%
  hemolysis at 1 h: 0.31 ± 0.16%

## CCOC(=O)C1=C(c2ccccc2)N=c2sc(=Cc3ccc(-c4cccc(C(=O)O)c4)o3)c(=O)n2C1c1ccc(Cl)cc1 (centres unmarked) [H5-23, 2-{5-(3-carboxy-phenyl)-furan-2-ylmethylene]-5-(4-chloro-phenyl)-3-oxo-7-phenyl-2,3-di-hydro-5H-thiazolo[3,2-a]pyrimidine-6-carboxylic acid ethyl ester]
[1]
  MBC: 25 µM (≈ 15.3 µg/mL)
  MIC: 1.56 µM (≈ 0.953 µg/mL)
E. coli ATCC 25922
  MIC: >200 µM
E. coli ATCC 25922; [7]
  MIC: > 200 µM
S. aureus ATCC 49230
  MIC: 1.56 µM (≈ 0.953 µg/mL)
[2]
  MIC: 1.56 µM (≈ 0.953 µg/mL)
Cytotoxicity MTT assay
  CC50 at 4 h: > 200 µM
[4]
  PI/Total (reduction of the proportion of viable cells in mature biofilms): 85.7%
  PI fluorescence quantity (dead cells): 61.928 ± 5.05
  SYTO9 fluorescence quantity (viable cells): 10.333 ± 4.39
[3]
  hemolysis at 1 h, 200 µM: 0.27 ± 0.01%
  hemolysis at 1 h: 0.27 ± 0.35%
YycG′ protein
  inhibition of the enzymatic activity of YycG′ protein: 64.78%
  IC50: 77.2 µM

## COc1ccc(C2C=C(c3ccccc3)N=c3sc(=Cc4ccc(-c5cccc(C(=O)O)c5)o4)c(=O)n32)cc1 (centres unmarked) [H5-24, 3-{5-[5-(4-methoxy-phenyl)-3-oxo-7-phenyl-5H-thiazolo[3,2-a]pyrimidin-2-ylidenemethyl]-furan-2-yl}-benzoic acid]
[1]
  MBC: 50 µM (≈ 26.7 µg/mL)
  MIC: 1.56 µM (≈ 0.834 µg/mL)
E. coli ATCC 25922
  MIC: >200 µM
E. coli ATCC 25922; [7]
  MIC: > 200 µM
S. aureus ATCC 49230
  MIC: 1.56 µM (≈ 0.834 µg/mL)
[2]
  MIC: 1.56 µM (≈ 0.834 µg/mL)
Cytotoxicity MTT assay
  CC50 at 4 h: > 200 µM
[4]
  PI/Total (reduction of the proportion of viable cells in mature biofilms): 77.5%
  PI fluorescence quantity (dead cells): 43.242 ± 5.65
  SYTO9 fluorescence quantity (viable cells): 12.554 ± 4.23
[3]
  hemolysis at 1 h, 200 µM: 0.32 ± 0.05%
  hemolysis at 1 h: 0.17 ± 0.11%
YycG′ protein
  inhibition of the enzymatic activity of YycG′ protein: 49.92%
  IC50: 82.2 µM

## O=C(O)c1cccc(-c2ccc(C=c3sc4n(c3=O)C(c3ccc(Cl)cc3)C=C(c3ccccc3)N=4)o2)c1 (centres unmarked) [H5-25, 3-{5-[5-(4-chloro-phenyl)-3-oxo-7-phenyl-5H-thiazolo [3,2-a]pyrimidin-2-ylidenemethyl]-furan-2-yl}-benzoic acid]
[1]
  MBC: 50 µM (≈ 27 µg/mL)
  MIC: 1.56 µM (≈ 0.841 µg/mL)
E. coli ATCC 25922
  MIC: >200 µM
E. coli ATCC 25922; [7]
  MIC: > 200 µM
S. aureus ATCC 49230
  MIC: 1.56 µM (≈ 0.841 µg/mL)
[2]
  MIC: 1.56 µM (≈ 0.841 µg/mL)
Cytotoxicity MTT assay
  CC50 at 4 h: > 200 µM
[4]
  PI/Total (reduction of the proportion of viable cells in mature biofilms): 43.80%
  PI fluorescence quantity (dead cells): 47.687 ± 4.77
  SYTO9 fluorescence quantity (viable cells): 61.188 ± 5.49
[3]
  hemolysis at 1 h, 200 µM: 0.39 ± 0.09%
  hemolysis at 1 h: 0.27 ± 0.01%
YycG′ protein
  inhibition of the enzymatic activity of YycG′ protein: 51.42%
  IC50: 80.2 µM

## CN[C@H](CC(C)C)C(=O)N[C@H]1C(=O)N[C@@H](CC(N)=O)C(=O)N[C@H]2C(=O)N[C@H]3C(=O)N[C@H](C(=O)N[C@H](C(=O)O)c4cc(O)cc(O)c4-c4cc3ccc4O)[C@H](O)c3ccc(c(Cl)c3)Oc3cc2cc(c3O[C@@H]2O[C@H](CO)[C@@H](O)[C@H](O)[C@H]2O[C@H]2C[C@](C)(N)[C@H](O)[C@H](C)O2)Oc2ccc(cc2Cl)[C@H]1O [vancomycin, reference compound]
[5]; bactericidal = 3-log10 decrease in CFU/mL
  time required to achieve a bactericidal effect: > 5 h
[5]; within/after 1 h, inoculum ~1 × 10^7 CFU/mL, MHB
  reduction in CFU/mL: ~ 1 log
[6]
  reduction of living cells in mature biofilm: 11.4%

From article PMC5374206, “Anti-bacterial and Anti-biofilm Evaluation of Thiazolopyrimidinone Derivatives Targeting the Histidine Kinase YycG Protein of Staphylococcus epidermidis” (Frontiers in Microbiology, 2017)
